“Also recorded” adds a separate entry of the source.
Experiments:
[1] = tested on: activated intestinal bacteria; test: Intestinal bacterial transformation of AEOF; type: in vitro ADME, human; conditions: for After transformed by intestinal bacteria / Before transformed by intestinal bacteria: content in the extract; for transformation by intestinal bacteria (in words): in AEOF 15.0, 30.0, 60.0 mg/mL, up to 72 h, single person derived- or multiple people-derived intestinal bacteria
Description: Each 3 g of fresh feces from 3 healthy men and 3 healthy women of 23–25 years old was suspended in 200 mL of general anaerobic medium (GAM, including L-cystine hydrochloride, soluble starch, pepsin, tryptone, peptone, soy peptone, serum powder, yeast extract, beef extract, and beef liver extract powder purchased from Beijing Aoboxing Biotechnology Co., Ltd, Beijing, China) broth prepared as per a literature (Yang & Xu [2011]), respectively, and cultured in an anaerobic incubator (Shanghai Cimomedical Appliance Co., Ltd., Shanghai, China) at 37 °C for 24 h (Tsuchihashi et al. [2009]). […] Each 100 μL of the activated intestinal bacteria from the 6 volunteers were added into 11.4 mL of GAM, mixed adequately, and incubated in the same conditions as previously to obtain the mixture of activated intestinal bacteria. About 0.4513, 0.9026, and 1.8052 g of AEOF were dissolved in 30 mL of GAM on a super clean bench (Beijing Great Wall Air Purification Co. Ltd., Beijing, China), respectively, to generate the experimental groups. Then, the triplicate GAM containing AEOF was divided into 24 screw-cap test tubes, and each screw-cap test tube had 3 mL of the GAM and 100 μL of the activated intestinal bacteria and the mixture of activated intestinal bacteria, respectively. They were incubated under the same condition, and the test tubes of each concentration in triplicate were removed from the anaerobic incubator at 0, 2, 4, 6, 12, 24, 48, and 72 h. About 100 μL of the bacterial suspension was replaced with GAM to obtain the control group. The GAM absent of the AEOF was used as the blank group. […] About 300 μL of the supernatant was collected, filtered through a 0.45 μm membrane filter, and stored at −20 °C before HPLC analysis.
The HPLC analysis was performed using a Waters 1500 series (Waters Business Operations, Milford, MA) equipped with a 1525 binary HPLC pump, an on-line degasser, a manual injector and a 2489 UV/Visible detector. […] The temperature was set at 35 °C and the UV detecting wavelengths were 254 and 365 nm. The mobile phase consisted of acetonitrile (HPLC grade, Fisher Co., Pittsburgh, PA) (A) and 1.0% acetic acid (Beijing Chemical Works, Beijing, China) in purified water (v/v) (B), and the gradient elution program was as follows: 5–10% A (0–5 min), 10–20% A (5–10 min), 20–25% A (10–22 min), 25–40% A (22–35 min), 40–50% A (35–40 min), and 50–5% A (40–42 min) at a flow rate of 1.0 mL/min. The volume injected was 5 μL.

[2] = Absorption experiment with everted gut sacs; conditions: Sprague-Dawley, rat
[3] = tested on: everted gut sacs (jejunum); test: Absorption experiment with everted gut sacs; conditions: for transport percentage: Everted gut sacs, AP→BL; for After transported with everted gut sacs: intestinal bacterial transformed AEOF
[4] = Transport experiment with Caco-2 cell monolayers; conditions: human, Caco-2, Papp, Caco-2 cell monolayers; for Papp at 180 min, 10 mg/mL: extract 10 mg/mL; for Papp at 180 min, 20 mg/mL: extract 20 mg/mL; for Papp at 180 min, 30 mg/mL: extract 30 mg/mL
Description: (§1) The Caco-2 cells were cultured in the culture medium consisting of Dulbecco’s Modified Eagle Medium (DMEM, Gibco Inc., Grand Island, CA)-fetal bovine serum (FBS, Gibco Inc., Grand Island, CA)-nonessential amino acids (NEAA, Corning Costar, Cambridge, MA)-‘penicillin-streptomycin’ (Corning Costar, Cambridge, MA) (100:10:1:1, v/v/v/v) in 25 cm^2 flasks, which were incubated in 5% CO2 and constant temperature (37 °C) and humidity in the incubator. The culture medium was replaced every 2 or 3 days, and the cells were split 1:2 or 1:3 to conduct passage when they reached 80% confluence.
(§2) About 1.5 mL of the culture medium was added into the basal (BL) side of each well of the 12-well Transwell plates (insert diameter 12 mm, pore size 3.0 μm, membrane growth area 1.12 cm^2, Corning Costar, Cambridge, MA), and 0.5 mL of the Caco-2 cell suspension at the density of 2.0 × 10^5 cells/mL was seeded into the apical (AP) side of each insert. The cells were incubated in 5% CO2 and constant temperature (37 °C) and humidity in the incubator. The culture medium in both AP and BL sides was replaced every other day in the first week, then that in AP side was replaced every day and that in BL side was replaced every other day. The cells would differentiate and form a confluent monolayer. The integrity and viability of the cell monolayers were evaluated by measuring transepithelial electrical resistance (TEER) values in the culture medium at 37 °C using a Millicell®-ERS system (Millipore Corp., Bedford, MA), and only the inserts with the TEER above 600 Ω/cm^2 on day 21 were selected to perform the transport experiment.
(§3) About 200 μL of the solution in the receiving chambers was collected at 30, 60, 90, 120, 150, and 180 min, respectively, and then the same volume of HBSS was added. All samples were stored at −20 °C and filtered through a 0.45 μm membrane filter for HPLC analysis.
(§4) The HPLC conditions used for the analysis of the intestinal bacterial transformed AEOF before and after transport experiment was the same as above.
(§5) The transport percentage (%) was calculated using the formula transport percentage (%) = dQ/(C0 × V) × 100, wherein, V (mL) represented the volume of the donor compartment.

Caco-2 cell monolayers = test: Transport experiment with Caco-2 cell monolayers; conditions: for transport percentage: Caco-2 cell monolayers; for After transported with Caco-2 cell monolayers: intestinal bacterial transformed AEOF
Description: as §1, §2, §3, §4, §5

[5] = previous study, ref Liu et al. [2014]; Wu et al. [2014]; cited from earlier work
[6] = first of three lines per compound (lowest extract concentration)
[7] = first of three lines per compound (lowest extract concentration; AEOF 15, 30, 60 mg/mL)
[8] = second of three lines per compound (middle extract concentration, not given)
[9] = third of three lines per compound (highest extract concentration, not given)
[10] = first of three lines per compound (lowest concentration; 10, 20, 30 mg/mL)
[11] = second of three lines per compound (middle concentration, not given)
[12] = third of three lines per compound (highest concentration, not given)

Row | Compound | After transformed by intestinal bacteria [1, 6] [µg/mL] | Before transformed by intestinal bacteria [1, 7] [µg/mL] | After transformed by intestinal bacteria [1, 8] [µg/mL] | Before transformed by intestinal bacteria [1, 8] [µg/mL] | After transformed by intestinal bacteria [1, 9] [µg/mL] | Before transformed by intestinal bacteria [1, 9] [µg/mL] | transformation by intestinal bacteria (in words) [1] | Papp at 180 min, 10 mg/mL [2] [×10⁻⁶ cm/s] | Papp at 180 min, 20 mg/mL [2] [×10⁻⁶ cm/s] | Papp at 180 min, 30 mg/mL [2] [×10⁻⁶ cm/s] | transport percentage ([3]; extract 10 mg/mL) [%] | transport percentage ([3]; extract 20 mg/mL) [%] | transport percentage ([3]; extract 30 mg/mL) [%] | After transported with everted gut sacs [3, 10] [µg/mL] | After transported with everted gut sacs [3, 11] [µg/mL] | After transported with everted gut sacs [3, 12] [µg/mL] | Papp at 180 min, 10 mg/mL ([4]; AP→BL) [×10⁻⁶ cm/s] | Papp at 180 min, 10 mg/mL ([4]; BL→AP) [×10⁻⁶ cm/s] | Papp at 180 min, 20 mg/mL ([4]; AP→BL) [×10⁻⁶ cm/s] | Papp at 180 min, 20 mg/mL ([4]; BL→AP) [×10⁻⁶ cm/s] | other results
1 | COc1ccc(C(=O)O)cc1OC [veratric acid] | 3.22 | 2.81 | 7.44 | 6.10 | 12.78 | 13.39 | not transformed; also recorded: not changed | 127 ± 4 | 111 ± 7 | 142 ± 3 | 27.04 | 21.02 | 28.12 | 0.59 | 1.64 | 2.02 | 104 ± 5 | 236 ± 5 | 105 ± 15 | 210 ± 4 | Papp at 180 min, 30 mg/mL ([4]; AP→BL): 109 ± 4 ×10⁻⁶ cm/s; Papp at 180 min, 30 mg/mL ([4]; BL→AP): 199 ± 4 ×10⁻⁶ cm/s; transport percentage (Caco-2 cell monolayers; extract 10 mg/mL, AP→BL): 109.67%; transport percentage (Caco-2 cell monolayers; extract 10 mg/mL, BL→AP): 95.04%; transport percentage (Caco-2 cell monolayers; extract 20 mg/mL, AP→BL): 127.58%; transport percentage (Caco-2 cell monolayers; extract 20 mg/mL, BL→AP): 84.75%; transport percentage (Caco-2 cell monolayers; extract 30 mg/mL, AP→BL): 131.58%; transport percentage (Caco-2 cell monolayers; extract 30 mg/mL, BL→AP): 80.33%; After transported with Caco-2 cell monolayers (Caco-2 cell monolayers; [10]): 0.92 µg/mL; After transported with Caco-2 cell monolayers (Caco-2 cell monolayers; [11]): 1.62 µg/mL; After transported with Caco-2 cell monolayers (Caco-2 cell monolayers; [12]): 2.79 µg/mL; absorption mechanism [5]: mainly through passive diffusion
2 | O=C1CC[C@H]2c3cc(O)c(O)cc3CCN12 [trolline] | 22.37 | 22.80 | 36.28 | 35.96 | 71.00 | 73.23 | not transformed; also recorded: not changed | 138 ± 1 | 107 ± 5 | 151 ± 4 | 29.42 | 20.32 | 30.00 | 4.33 | 6.97 | 14.76 | 112 ± 7 | 231 ± 7 | 127 ± 12 | 194 ± 2 | Papp at 180 min, 30 mg/mL ([4]; AP→BL): 107 ± 6 ×10⁻⁶ cm/s; Papp at 180 min, 30 mg/mL ([4]; BL→AP): 184 ± 11 ×10⁻⁶ cm/s; transport percentage (Caco-2 cell monolayers; extract 10 mg/mL, AP→BL): 135.43%; transport percentage (Caco-2 cell monolayers; extract 10 mg/mL, BL→AP): 93.13%; transport percentage (Caco-2 cell monolayers; extract 20 mg/mL, AP→BL): 153.03%; transport percentage (Caco-2 cell monolayers; extract 20 mg/mL, BL→AP): 78.21%; transport percentage (Caco-2 cell monolayers; extract 30 mg/mL, AP→BL): 130.00%; transport percentage (Caco-2 cell monolayers; extract 30 mg/mL, BL→AP): 74.30%; After transported with Caco-2 cell monolayers (Caco-2 cell monolayers; [10]): 8.10 µg/mL; After transported with Caco-2 cell monolayers (Caco-2 cell monolayers; [11]): 13.59 µg/mL; After transported with Caco-2 cell monolayers (Caco-2 cell monolayers; [12]): 19.15 µg/mL; absorption mechanism [5]: an associative mechanism including both active and passive transports
3 | COc1cc(C(=O)O)cc(CC=C(C)C)c1O [proglobeflowery acid] | 32.40 | 2.55 | 67.09 | 4.78 | 134.85 | 6.67 | not transformed; also recorded: not changed | 450 ± 11 | 534 ± 14 | 586 ± 8 | 9.60 | 10.58 | 11.61 | 1.95 | 4.95 | 7.74 | 105 ± 4 | 223 ± 16 | 123 ± 26 | 142 ± 5 | Papp at 180 min, 30 mg/mL ([4]; AP→BL): 181 ± 22 ×10⁻⁶ cm/s; Papp at 180 min, 30 mg/mL ([4]; BL→AP): 105 ± 4 ×10⁻⁶ cm/s; transport percentage (Caco-2 cell monolayers; extract 10 mg/mL, AP→BL): 127.39%; transport percentage (Caco-2 cell monolayers; extract 10 mg/mL, BL→AP): 89.93%; transport percentage (Caco-2 cell monolayers; extract 20 mg/mL, AP→BL): 148.57%; transport percentage (Caco-2 cell monolayers; extract 20 mg/mL, BL→AP): 57.32%; transport percentage (Caco-2 cell monolayers; extract 30 mg/mL, AP→BL): 219.09%; transport percentage (Caco-2 cell monolayers; extract 30 mg/mL, BL→AP): 42.47%; After transported with Caco-2 cell monolayers (Caco-2 cell monolayers; [10]): 11.11 µg/mL; After transported with Caco-2 cell monolayers (Caco-2 cell monolayers; [11]): 17.18 µg/mL; After transported with Caco-2 cell monolayers (Caco-2 cell monolayers; [12]): 23.46 µg/mL; absorption mechanism [5]: mainly through passive diffusion

Source: publication PMC6130518, “Investigation of the effective components of the flowers of Trollius chinensis from the perspectives of intestinal bacterial transformation and intestinal absorption” (Pharmaceutical Biology, 2017)
